Results on 43 compounds are retold here after US8058243B2, “Method for treating a brain cancer with ifenprodil” (HSC Research and Development Limited Partnership, priority 2006, dated 2011).

Where a name gives a salt, the structure may show the parent alone. Read-outs that look alike come from different tables or passages of the source. Residues, ends and D or L forms follow the SMILES beside them. *: point of attachment. Cbz = O=C(OCc1ccccc1)*

The assay concerns murine neural precursor cells (neurosphere cultures). Nature of the assay: HTS of LOPAC library against secondary neurosphere cultures, MTT proliferation assay at 3 μM, day 7 (z score, P value). Type of assay: cell-based, mouse. In general terms: Formazan colour is commonly taken as a measure of viable cells.
Where [1] appears, read: yes/no: significantly inhibited neurosphere proliferation in the primary screen.
Where [2] appears, read: yes/no: significantly inhibited neurosphere proliferation (P<0.01) in primary screen.
Setting [3] is: LOPAC primary screen, neurosphere MTT proliferation, 3 μM, day 7.
[4] abbreviates: yes/no: significantly inhibited neurosphere proliferation in primary screen.
[5] abbreviates: LOPAC screen, neurosphere MTT proliferation, 3 μM, day 7.
Setting [6] is: LOPAC library screen, 3 μM, MTT, secondary neurosphere cultures, day 7.
Setting [7] is: primary LOPAC screen, 3 μM, MTT, neurosphere proliferation.
Where [8] appears, read: LOPAC library screen at 3 μM, secondary neurosphere cultures, MTT.
[9] abbreviates: yes = significantly inhibited neurosphere proliferation (P<0.01) in the primary screen.
[10] abbreviates: yes/no: significantly inhibited neurosphere proliferation (P<0.01) in the primary screen.
The mark [11] stands for this setting: LOPAC library screen, 3 μM, MTT, neurosphere cultures.

As for `COc1ccc2c(c1)CC[C@@H]1[C@@H]2CC[C@]2(C)[C@@H](NCCCCCCN3C(=O)C=CC3=O)CC[C@@H]12` [U-73122], under setting [1], the Activity result is reported as “no”.

Regarding `O=c1[nH]c(=O)n([C@H]2C[C@H](O)[C@@H](CO)O2)cc1/C=C/Br` [(E)-5-(2-Bromovinyl)-2′-deoxyuridine], where the note is “168 h, 3 µM”, the “Z Score” value is recorded as −2.123 and the Z score is given as −2.123. In addition, the Activity entry under setting [2] is reported as “no”.

As for `Br.Br.N=C(N)SCCc1cccc(CCSC(=N)N)c1` [1,3-PBIT dihydrobromide], the “Z Score” value came to 2.221. In addition, the Z score under setting [3] was 2.221. Further, the Activity result under setting [4] was “no”.

Regarding `O=C(O)c1cc(O)c2ccc(Cl)cc2n1` [7-Chlorokynurenic acid], the “Z Score” value turned out to be 1.241. This compound displayed a Z score under setting [5] of 1.241. Also, the Activity result under setting [2] is “no”.

As for `CCN(CC)C(=O)N[C@H]1C[C@@H]2c3cccc4[nH]cc(c34)C[C@H]2N(C)C1` [R(+)-Terguride], the “Z Score” value under setting [6] is −2.004. Also, the Z score under setting [7] is −2.004. Further, the Activity result under setting [1] is given as “no”.

Consider `Oc1ccc(Cn2ccnc2S)cc1` [1-(4-Hydroxybenzyl)imidazole-2-thiol], for which, under “168 h, 3 µM”, the “Z Score” value worked out at 0.7628 and the Z score turned out to be 0.763. Further, the Activity result under setting [2] is “no”.

As to `CCN(CC)C(=O)c1ccc(O)c(OC)c1` [Vanillic acid diethylamide], the “Z Score” value under setting [8] is listed as −0.5948. Under setting [5], the Z score is on record as −0.595. Moreover, the Activity result under setting [2] is “no”.

As for `Cn1c(=O)c2[nH]c(-c3ccccc3)nc2n(C)c1=O` [1,3-Dimethyl-8-phenylxanthine], under “168 h, 3 µM”, the “Z Score” value was 0.7518 and the Z score was 0.752. Also, the Activity entry under setting [4] is recorded as “no”.

As to `CNCCCC12CCC(c3ccccc31)c1ccccc12` [Maprotiline hydrochloride], the “Z Score” value under setting [8] was −0.3615. For the same compound, under setting [3], the Z score was −0.361. Also, the Activity result under setting [9] is reported as “no”.

In the case of `O=C1Cc2c([nH]c3ccc(Br)cc23)-c2ccccc2N1` [Kenpaullone], for the setting “168 h, 3 µM”, the “Z Score” value is on record as −1.555 and the Z score is reported as −1.555. In addition, under setting [2], the Activity result is listed as “no”.

As for `CCC(=O)c1ccc2c(c1)N(CCCN(C)C)c1ccccc1S2` [Propionylpromazine hydrochloride], the “Z Score” value under setting [6] is given as −1.584. The Z score under setting [3] is −1.584. Moreover, the Activity result under setting [10] was “no”.

Turning to `COc1cc2c(c(OC)c1OC)-c1ccc(OC)c(=O)cc1[C@@H](NC(C)=O)CC2` [Colchicine], the Activity result is reported as “yes”, the “Z Score” value was −10.75 and the Z score is given as −10.753.

Regarding `CC(C)Cc1ccc([C@H](C)C(=O)O)cc1` [S(+)-Ibuprofen], the “Z Score” value under setting [8] is −0.7335. The Z score under setting [3] was −0.733. The Activity result under setting [2] is reported as “no”.

`CCCC(=O)NCCc1c2n(c3ccc(OC)cc13)Cc1ccccc1-2` [IIK7]: the “Z Score” value was −0.3544. The same compound yielded a Z score under setting [3] of −0.354. In addition, the Activity result under setting [2] is “no”.

Turning to `O=C(O)[C@@H]1CCN1` [L-azetidine-2-carboxylic acid], the “Z Score” value is on record as 0.9837. Under setting [3], this compound had a Z score of 0.984. In addition, the Activity entry under setting [4] is “no”.

`CCN(CC)CCNC(=O)c1cc(Cl)c(N)cc1OC` [Metoclopramide hydrochloride]: where the note is “168 h, 3 µM”, the “Z Score” value is −1.992 and the Z score is listed as −1.992. Moreover, the Activity entry under setting [10] is reported as “no”.

In the case of `OC[C@H]1NC[C@@H](O)[C@@H]1O` [1,4-Dideoxy-1,4-imino-D-arabinitol], where the note is “168 h, 3 µM”, the “Z Score” value is reported as −0.008617 and the Z score is reported as −0.009. The Activity result under setting [2] is on record as “no”.

For `COC(=O)[C@@H]1[C@H]2C[C@H]3c4[nH]c5ccccc5c4CCN3C[C@@H]2CC[C@@H]1O` [Yohimbine hydrochloride], where the note is “168 h, 3 µM”, the “Z Score” value is −1.656 and the Z score is listed as −1.656. Besides, the Activity entry under setting [1] is reported as “no”.

In the case of `O=c1c(-c2ccc(O)cc2)coc2cc(O)cc(O)c12` [Genistein], under setting [8], the “Z Score” value is given as −0.4689. Besides, the Z score under setting [3] was −0.469. Moreover, under setting [10], the Activity result is given as “no”.

For the compound `CC(Cc1ccc(O)cc1)NCC(O)c1cc(O)cc(O)c1` (stereo not shown) [Fenoterol hydrobromide], the “Z Score” value is reported as −1.841. The compound also yielded a Z score under setting [3] of −1.841. Further, the Activity entry under setting [2] is listed as “no”.

As for `CCOC(=O)C1=C(C)NC(=S)NC1c1cccc(O)c1` (stereo not shown) [Monastrol], for the setting “168 h, 3 µM”, the “Z Score” value was −1.162 and the Z score is −1.162.

In the case of `C[N+]1(C)C2CCC1CC(OC(=O)c1c[nH]c3ccccc13)C2.[I-]` (stereo not shown), the “Z Score” value is −0.3436. Also, the Z score under setting [7] is given as −0.344. The Activity entry under setting [1] is “no”.

Take `CC(C)NCC(O)COc1cccc2[nH]ccc12` (stereo not drawn) [S(−)-Pindolol]: the Z score runs as follows: under setting [3], −1.122; under setting [5], −0.965. For the same compound, the Activity entry under setting [2] was “no” and the Activity entry under setting [4] was “no”.

For `Cl.NCCNC(=O)c1ncsc1-c1cccc(F)c1` [Ro 41-1049 hydrochloride], the “Z Score” value was 1.328. The same compound had a Z score under setting [3] of 1.328. Also, the Activity result under setting [4] was “no”.

For `CC(C)[C@@]1(NC(=O)[C@@H]2C=C3c4cccc5[nH]cc(c45)C[C@H]3N(C)C2)O[C@@]2(O)[C@@H]3CCCN3C(=O)[C@H](Cc3ccccc3)N2C1=O` [Ergocristine], the “Z Score” value was 0.4078. Further, the Z score under setting [3] was determined as 0.408. Further, the Activity result under setting [2] was “no”.

With `Cc1ccc(N(CC2=NCCN2)c2cccc(O)c2)cc1` [Phentolamine mesylate], for the setting “168 h, 3 µM”, the “Z Score” value is −0.3191 and the Z score is −0.319. For the same compound, the Activity entry under setting [4] is recorded as “no”.

`Cl.NC1(C(=O)O)CC1` [1-Aminocyclopropanecarboxylic acid hydrochloride]: the Activity result is given as “yes”, the “Z Score” value is reported as −2.401 and the Z score was −2.401.

As to `COc1ccccc1N1CCNCC1.Cl` [1-(2-Methoxyphenyl)piperazine hydrochloride], the “Z Score” value is recorded as −0.6388. This compound returned a Z score under setting [3] of −0.639. Further, the Activity result under setting [4] was “no”.

For `Nc1cc(=O)[nH]c(N)n1` [2,6-Diamino-4-pyrimidinone], the “Z Score” value under setting [8] is on record as −1.072. This compound also had a Z score under setting [5] of −1.072. Moreover, the Activity result under setting [2] is given as “no”.

In the case of `CN1[C@@H]2CC[C@H]1CC(OC(=O)c1c[nH]c3ccccc13)C2.Cl` (stereo partly shown) [3-Tropanyl-indole-3-carboxylate hydrochloride], the “Z Score” value is on record as −1.528. Under setting [7], this compound showed a Z score of −1.528. Under setting [1], the Activity entry is listed as “no”.

For the compound `CC(C)[N+]1(C)[C@@H]2CC[C@H]1CC(OC(=O)C(CO)c1ccccc1)C2.[Br-]` (stereo partly shown) [Ipratropium bromide], the “Z Score” value is −0.308. In addition, under setting [3], the Z score is −0.308. Besides, under setting [2], the Activity entry is recorded as “no”.

Turning to `C[C@]12CCC(=O)C=C1CC[C@@H]1[C@@H]2C(=O)C[C@@]2(C)[C@H]1CC[C@]2(O)C(=O)CO` [Cortisone], the “Z Score” value under setting [8] is given as −0.5807. Under setting [7], this compound yielded a Z score of −0.581. Further, under setting [1], the Activity result was “no”.

With `C[C@]12C=CC(=O)C=C1CC[C@H]1[C@@H]3C[C@@H](O)[C@](O)(C(=O)CO)[C@@]3(C)C[C@H](O)[C@@]12F` [Triamcinolone], the Activity result is “no”. Moreover, the “Z Score” value under setting [8] is given as −0.184. The compound further came in with a Z score under setting [3] of −0.184.

Take `CC(C)[C@H](NC(=O)OCc1ccccc1)C(=O)N[C@H](C=O)Cc1ccccc1` [MDL 28170] (Cbz-Val-Phe-aldehyde): where the note is “168 h, 3 µM”, the “Z Score” value is recorded as −1.139 and the Z score is given as −1.139.

Take `COCCCC/C(=N\OCCN)c1ccc(C(F)(F)F)cc1` [Fluvoxamine maleate]: the Activity entry was “no”. For the same compound, under setting [11], the “Z Score” value came to 0.1323. The compound further displayed a Z score under setting [3] of 0.132.

With `CC(C)NCC(O)c1ccc(O)c(O)c1.Cl` (single isomer, unassigned; (-)) [(−)-Isoproterenol hydrochloride], the “Z Score” value under setting [11] is reported as 0.2367. In addition, under setting [3], the Z score was determined as 0.237. Besides, the Activity entry under setting [2] was “no”.

`Nc1nc(Nc2ccccc2)nc2c1ncn2[C@@H]1O[C@H](CO)[C@@H](O)[C@H]1O` [2-Phenylaminoadenosine]: under “168 h, 3 µM”, the “Z Score” value was determined as 0.5728 and the Z score is recorded as 0.573. Further, the Activity entry under setting [10] is “no”.

The compound `O=C(O)C1CCCNC1` (racemic) [(±)-Nipecotic acid] displayed a Z score of −0.722.

On to `CNc1ccc2oc(C[C@H]3O[C@@]4(CC[C@H]3C)O[C@H]([C@H](C)C(=O)c3ccc[nH]3)[C@H](C)C[C@H]4C)nc2c1C(=O)O` [Calcimycin], for which the “Z Score” value is reported as 2.172. Further, under setting [5], the Z score is reported as 2.172. Besides, the Activity entry under setting [2] is given as “no”.

As for `Cl.OC[C@H]1NC[C@H](O)[C@@H](O)[C@@H]1O` [1-Deoxynojirimycin hydrochloride], the “Z Score” value under setting [11] is reported as 1.242. Further, the Z score under setting [5] was 1.242. The Activity result under setting [2] is given as “no”.

Regarding `O=C(CCNNC(=O)c1ccncc1)NCc1ccccc1` [Nialamide], the “Z Score” value under setting [11] was −0.02937. Besides, the Z score under setting [3] is on record as −0.029. For the same compound, the Activity entry under setting [9] is on record as “no”.

On to `Cc1ccc(Cl)c(Nc2ccccc2C(=O)O)c1Cl` [Meclofenamic acid sodium], for which the “Z Score” value (LOPAC library screen at 3 μM, MTT, secondary neurosphere cultures, screened in singlets) is listed as 2.233. The Z score under setting [3] amounted to 2.233. Moreover, the Activity entry under setting [9] is recorded as “no”.

`CCN(CC)CCNC(=O)c1cc(S(C)(=O)=O)ccc1OC` [Tiapride hydrochloride]: the “Z Score” value under setting [11] is reported as 0.6889. The same compound yielded a Z score under setting [3] of 0.689. Also, the Activity result under setting [10] is reported as “no”.
